What was measured:
hCMEC/D3 cells = assay: Jurkat cell migration across hCMEC/D3 transwell in vitro BBB; type: cell-based, human; conditions: 24 hours
Procedure: hCMEC/D3 cells were seeded onto Transwell and allowed to grow to confluencey. 2×10^6 Jurkat cells were added to the upper chamber with or without NECA (general adenosine receptor [AR] agonist), CCPA (A1 AR agonist), CGS 21860 (A2A AR agonist), or DMSO vehicle. After 24 hours, migrated cells in the lower chamber were counted. Values are relative to the number of cells that migrate through non-[…]3 seeded transwells.

Z310 cells = assay: Jurkat cell migration across Z310 choroid plexus cell transwell; type: cell-based, murine; conditions: 24 hours, n=1
Procedure: To test the hypothesis, Transwell membranes were seeded with Z310 cells and allowed to grow to confluencey. 2×10^6 Jurkat cells were added to the upper chamber with or with out NECA (n=1, general AR agonist), CCPA (n=1, A1 AR agonist), CGS 21860 (n=1, A2A AR agonist), or DMSO vehicle(n=1). After 24 hours, migrated cells in the lower chamber were counted. Values are relative to the number of cells that migrate through non-Z310 seeded transwells and the results are shown in FIG. 12.

HCMECD3 cells = assay: cAMP levels in human brain endothelial cells (cAMP Screen kit); type: cell-based; conditions: 15 minutes
Procedure: […]3 cells were grown to confluencey on 24 well plates. As adenosine receptor (“AR”) stimulation is known to influence cAMP levels, cells were treated with or without various concentrations of NECA (general AR agonist), CCPA (A1 AR agonist), CGS 21860 (A2A AR agonist), DMSO vehicle, or Forksolin (induces cAMP). After 15 minutes, lysis buffer was added and the cells were frozen at -80 C to stop the reaction. Duplicate samples were used for each condition. cAMP levels were assayed using a cAMP Screen kit (Applied Biosystems, Foster City, Calif.).

blood brain barrier = assay: Fluorescently labeled dextran extravasation into mouse brain (fluorimetry); type: in vivo, mice; conditions: wild type mice, 10,000 Da FITC-dextran, i.v., 3 h, vs vehicle
Procedure: The adenosine receptor agonists NECA, CCPA, CGS 21860, and SCH 58261 (Tocris, Ellisville, Mo.) were each dissolved in DMSO then diluted in PBS to the desired concentration; in most cases final DMSO concentrations were <0.5% (vol/vol). Lexiscan (Regadenoson; TRC, Inc., Toronto) was dissolved in PBS. For vehicle controls, DMSO was diluted in PBS to the same concentration. Dehydrated dextrans labeled with either FITC or Texas Red (Invitrogen, Carlsbad, Calif.) were re-suspended in PBS to 10 mg/ml. All experiments involving dextran injection used 1.0 mg dextran in PBS. In experiments where drug and dextran were injected concomitantly, 1.0 mg of dextran was mixed with the drug to the desired concentration in a final volume of 200 μl. In dose-response experiments, drugs and dextrans were injected concomitantly. All injections, except injections of SCH 58261, were retro-orbital i.v. with a 27-gauge needle. In the SCH 58261 experiment, SCH 58261 injections, 1 mg/kg, were intraperitoneal and mice were pre-dosed with this concentration daily for 4 days prior to the day of the experiment. An additional injection was administered at the time of the experiment. Vehicle/drug and dextrans were injected on day 5 and tissues were collected 3 h after vehicle/drug administration. In Lexiscan experiments, Lexiscan was administered i.v. with 3 injections, 5 min apart and tissues were collected at 15 min unless otherwise indicated.
In dose-response experiments and experiments with the A1 AR and A2A AR knock-out mice, drugs and dextrans were injected concomitantly. After 3 h, the mice were anesthetized with ketamine/xylazine and subjected to a nose cone containing isoflurane. They were perfused with 25-50 ml ice-cold PBS through the left ventricle of the heart then decapitated. Their brains were removed, weighed and frozen for later analysis.
Ice-cold 50 mMTris-Cl (pH 7.6) was added to frozen brains (100 μl per 100 mg brain) and were to thawed on ice. They were homogenized with a dounce homogenizer and centrifuged at […] in a microfuge for 30 min at room temperature (rt). The supernatants were transferred to new tubes and an equal volume absolute methanol was added. The samples were centrifuged again at […] for 30 min at rt. Supernatant (200 μl) was transferred to a Corning costar 96 well black polystyrene assay plate (clear bottom). Additionally, a series of standards containing 0.001-10 pg/ml dextran in 50% Tris-Cl/50% absolute methanol (vol/vol) was added to each plate. Absolute concentrations of dextrans were derived from these standard curves. Fluorimetric analysis was performed on a BioTek (Winooski, Vt.) Synergy 4. FITC-dextran was detected at 488/519 (excitation/emission) and Texas Red-dextran was detected at 592/618.

Bend.3 cells = assay: F-actin (phalloidin) staining of endothelial cells; type: cell-based, mouse; conditions: BECs, 1 μM, 3 or 30 min, vs vehicle
Procedure: Bend.3 cells were grown (as described above) on circular cover slips in 24-well plates. Cells were treated for 3 or 30 min with 1 μM CCPA, 1 μM […], DMSO or media alone. Cover slips were washed with PBS, fixed in 4% paraformaldahyde, washed again in PBS and then permeabilized with 0.5% TritonX-100 in PBS. After washing in PBS/1% BSA, cover slips were blocked with 1% BSA then stained with Phallodin-Alexa 568. Cover slips were washed and mounted on slides with ProlongGold containing DAPI (Invitrogen). Images were obtained on an Olympus BX51 fluorescent microscope.

[1] = Klabunde 1983; cited from earlier work
EAE = EAE induction and scoring (MOG35-55/CFA/PTX); type: in vivo, mice
Source text: Cd73^−/− mice have been previously described (Thompson et al., “Crucial Role for Ecto-5′-Nucleotidase (CD73) in Vascular Leakage During Hypoxia,” J. Exp. Med. 200:1395-1405 (2004), which is hereby incorporated by reference in its entirety) and have been backcrossed to C57BL/6 for 14 generations. Cd73^−/− mice have no overt susceptibility to infection and appear normal based on the size and cellular composition of their lymphoid organs and their T and B cell responses in in vivo and in vitro assays (Thompson et al., “Crucial Role for Ecto-5′-Nucleotidase (CD73) in Vascular Leakage During Hypoxia,” J. Exp. Med. 200:1395-1405 (2004), which is hereby incorporated by reference in its entirety). C57BL/6 and tcrα^−/− mice on the C57BL/6 background were purchased from The Jackson Laboratories. Mice were bred and housed under specific pathogen-free conditions at Cornell University or the University of Turku. For adenosine receptor blockade experiments, mice were given drinking water supplemented with 0.6 g/L of caffeine (Sigma) or 2 mg/kg SCH58261 (1 mg/kg s.c. and 1 mg/kg i.p.) in DMSO (45% vol. in PBS) or 45% DMSO alone starting 1 day before EAE induction and continuing throughout the experiment. All procedures performed on mice were approved by the relevant animal review committee.
EAE was induced by subjecting mice to the myelin oligodendrocyte glycoprotein (“MOG”) EAE-inducing regimen as described in Swanborg, “Experimental Autoimmune Encephalomyelitis in Rodents as a Model for Human Demyelinating Disease,” Clin. Immunol. Immunopathol. 77:4-13 (1995) and Bynoe et al., “Epicutaneous Immunization with Autoantigenic Peptides Induces T Suppressor Cells that Prevent Experimental Allergic Encephalomyelitis,” Immunity 19:317-328 (2003), which are hereby incorporated by reference in their entirety. […] Mice were scored daily for EAE based on disease symptom severity; 0=no disease, 0.5-1=weak/limp tail, 2=limp tail and partial hind limb paralysis, 3=total hind limb paralysis, 4=both hind limb and fore limb paralysis, 5=death. […]
As CD73 catalyzes the breakdown of AMP to adenosine and ARs are expressed in the CNS (Tsutsui et al., “A1 Adenosine Receptor Upregulation and Activation Attenuates Neuroinflammation and Demyelination in a Model of Multiple Sclerosis,” J. Neurosci. 24:1521-1529 (2004)); Rosi et al., The Influence of Brain Inflammation Upon Neuronal Adenosine A2B Receptors,” J. Neurochem. 86:220-227 (2003), which are hereby incorporated by reference in their entirety), it was next determined if AR signaling is important during EAE progression. […] Since CD73 is highly expressed on the choroid plexus (FIG. 6C), it was next determined if ARs are also expressed on the choroid plexus. […]

Question: Which results are given for `OC[C@H]1O[C@@H](n2cnc3c(NC4CCCC4)nc(Cl)nc32)[C@H](O)[C@@H]1O` [CCPA, 2-chloro-N^6-cyclopentyladenosine]?
Answer: lymphocyte (Jurkat) migration across the in vitro BBB (hCMEC/D3 cells): induced lymphocyte migration at high levels; lymphocyte (Jurkat) migration across the CP (Z310 cells): induced lymphocyte migration at high levels; cAMP levels (HCMECD3 cells): increased cAMP levels; dextran entry into the CNS (blood brain barrier): increased dextran entry into the CNS; actinomyosin stress fiber formation (Bend.3 cells): marked induction of actinomycin stress fibers

Question: For `Nc1ncnc2c1ncn2[C@@H]1O[C@H](CO)[C@@H](O)[C@H]1O` [adenosine], which half-life [1] is on record?
Answer: < 10 s

Question: What does the source list for `Cn1c(=O)c2c(ncn2C)n(C)c1=O` [caffeine]?
Answer: EAE development (EAE; cd73−/− mice, caffeine 0.6 g/L in drinking water): did not develop EAE; EAE development (EAE; wild type mice, caffeine 0.6 g/L in drinking water from 1 day prior to and throughout EAE experiment): dramatically protected against EAE development

Question: What does the source list for `CCNC(=O)[C@H]1O[C@@H](n2cnc3c(N)nc(NCCc4ccc(CCC(=O)O)cc4)nc32)[C@H](O)[C@@H]1O` [CGS 21680, 4-[2-[[6-Amino-9-(N-ethyl-b-D-ribofuranuronamidosyl)-9H-purin-2-yl]amino]ethyl]benzenepropanoic acid]?
Answer: lymphocyte (Jurkat) migration across the in vitro BBB (hCMEC/D3 cells): promoted lymphocyte migration across the in vitro BBB when used at a lower concentration; lymphocyte (Jurkat) migration across the CP (Z310 cells): promoted lymphocyte migration across the CP; cAMP levels (HCMECD3 cells): slightly increased cAMP levels; dextran entry into the CNS (blood brain barrier): increased dextran entry into the CNS

B1: PEG-ADA: PEGylated adenosine deaminase (protein, UniProt P56658 2-363, looked up)
Adenosine deaminase: AQTPAFNKPKVELHVHLDGAIKPETILYYGRKRGIALPADTPEELQNIIGMDKPLSLPEFLAKFDYYMPAIAGCREAVKRIAYEFVEMKAKDGVVYVEVRYSPHLLANSKVEPIPWNQAEGDLTPDEVVSLVNQGLQEGERDFGVKVRSILCCMRHQPSWSSEVVELCKKYREQTVVAIDLAGDETIEGSSLFPGHVKAYAEAVKSGVHRTVHAGEVGSANVVKEAVDTLKTERLGHGYHTLEDATLYNRLRQENMHFEVCPWSSYLTGAWKPDTEHPVVRFKNDQVNYSLNTDDPLIFKSTLDTDYQMTKNEMGFTEEEFKRLNINAAKSSFLPEDEKKELLDLLYKAYGMPSPASAEQCL
modifications: PEGylated
notes: PEGylated adenosine deaminase
Question: With B1 as the molecule, how does the EAE development (EAE; wild-type mice, 15 units/kg i.p. every 4 days, vs PBS vehicle) read?
Answer: inhibits the development of EAE

Source: patent publication US20130224110A1, “USE OF ADENOSINE RECEPTOR SIGNALING TO MODULATE PERMEABILITY OF BLOOD-BRAIN BARRIER” (CORNELL UNIVERSITY, priority 2010, published 2013)
